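Dose response: 5 concentrations. Exposure: 48 h. Format: 96-well plates. Endpoint: linear interpolation; highest concentration if not reached. Abbreviation: GI50, concentration required for 50% inhibition of growth. TGI denotes the concentration required for complete inhibition of growth.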
Experiments:
Assay in all cases: inhibition of tumour cell growth, NCI panel, 48 h
ACHN renal = tested on: ACHN renal
OVCAR-5 ovarian = tested on: OVCAR-5 ovarian
SK-MEL-2 melanoma = tested on: SK-MEL-2 melanoma
MALME-3M melanoma = tested on: MALME-3M melanoma
CAKI-1 renal = tested on: CAKI-1 renal
CCRF-CEM leukemia = tested on: CCRF-CEM leukemia
OVCAR-4 ovarian = tested on: OVCAR-4 ovarian
SF-539 CNS = tested on: SF-539 CNS
HOP-92 NSCLC = tested on: HOP-92 NSCLC
MDA-MB-231 breast = tested on: MDA-MB-231 breast

Structure (SMILES) | TGI (ACHN renal) [µM] | TGI (OVCAR-5 ovarian) [µM] | TGI (SK-MEL-2 melanoma) [µM] | TGI (MALME-3M melanoma) [µM] | TGI (CAKI-1 renal) [µM] | TGI (CCRF-CEM leukemia) [µM] | TGI (OVCAR-4 ovarian) [µM] | TGI (SF-539 CNS) [µM] | TGI (HOP-92 NSCLC) [µM] | GI50 (ACHN renal) [µM] | GI50 (OVCAR-5 ovarian) [µM] | GI50 (SK-MEL-2 melanoma) [µM] | GI50 (MDA-MB-231 breast) [µM] | TGI (MDA-MB-231 breast) [µM] | GI50 (MALME-3M melanoma) [µM] | GI50 (HOP-92 NSCLC) [µM] | GI50 (CAKI-1 renal) [µM] | GI50 (OVCAR-4 ovarian) [µM] | GI50 (SF-539 CNS) [µM] | GI50 (CCRF-CEM leukemia) [µM]
COC(=O)/C(=N\NC(=O)C[N+](C)(C)C)C(C(=O)OC)C(=O)C(=O)Nc1ccccc1C(N)=O (stereo unspecified) | > 100 | > 100 | > 100 | > 100 | > 100 | > 100 | > 100 | > 100 | – | – | – | – | – | – | – | – | – | – | – | –
O=C1Nc2nc3ccccc3n2N=C2CCCC12 (stereo unspecified) | > 100 | > 100 | > 100 | > 100 | > 100 | > 100 | > 100 | > 100 | – | – | – | – | – | – | – | – | – | – | – | –
O=c1c2ccccc2c(=O)n2n1CC=CC2 | > 100 | > 100 | > 100 | > 100 | > 100 | > 100 | > 100 | > 100 | > 100 | – | – | – | – | – | – | – | – | – | – | –
CC1CN(c2ccc(Cl)cc2)CC(C)OC(=O)O1 (stereo unspecified) | > 100 | > 100 | > 100 | > 100 | > 100 | > 100 | > 100 | > 100 | > 100 | – | – | – | – | – | – | – | – | – | – | –
COCC(O)Cn1ccnc1[N+](=O)[O-] (stereo unspecified) | > 100 | > 100 | > 100 | > 100 | > 100 | > 100 | – | > 100 | – | – | – | – | – | – | – | – | – | – | – | –
OCC1C(/C=C/c2ccoc2)ON2CCCC12 (stereo unspecified) | > 100 | > 100 | > 100 | > 100 | > 100 | – | > 100 | > 100 | – | – | – | – | – | – | – | – | – | – | – | –
COc1cccc(-c2nn(-c3ccccc3)cc2-c2ccnc(NCCCNC(=O)Nc3ccc(Cl)c(Cl)c3)c2)c1 | 22.4 | 25.4 | 4.07 | 3.9 | 15 | – | 18.1 | 5.29 | 7.68 | 4.23 | 3.53 | 1.92 | 1.97 | 5.03 | 1.86 | 2.32 | 3.16 | 3.55 | 2.25 | –
Cc1cc(NCCCCCCNc2cc(C)nc3cc(N(C)C)ccc23)c2ccc(N(C)C)cc2n1 | > 100 | > 100 | > 100 | 62.6 | > 100 | > 100 | > 100 | > 100 | – | – | – | – | – | – | – | – | – | – | – | –
O=C1C2C3C=C4c5ccccc5N(c5ccccc5)C4(C2C(=O)N1c1ccc(Cl)cc1)[C@H]1C(=O)N(c2ccc(Cl)cc2)C(=O)[C@@H]31 (stereo partly specified) | – | > 100 | > 100 | > 100 | 76.3 | > 100 | > 100 | > 100 | > 100 | – | – | – | – | – | – | – | – | – | – | –
Cc1ccc([N+](=O)[O-])cc1NC(=O)/C(=N/NC(=S)NN)C1SC(=S)NC1=O (stereo unspecified) | > 100 | > 100 | > 100 | > 100 | > 100 | > 100 | > 100 | > 100 | > 100 | – | – | – | – | – | – | – | – | – | – | –
CCN(CC)CCOc1ccc(CCc2cc(OC)c(OC)c(OC)c2)cc1 | > 100 | 65.3 | – | > 100 | > 100 | > 100 | > 100 | > 100 | 82.6 | – | – | – | – | – | – | – | – | – | – | –
O=c1[nH]nc2ccccc2c1Cc1ccccc1 | > 100 | > 100 | > 100 | > 100 | > 100 | > 100 | > 100 | > 100 | > 100 | – | – | – | – | – | – | – | – | – | – | –
CCC(C)[C@H]1O[C@]2(C=C[C@@H]1C)C[C@@H]1C[C@@H](C/C=C(\C)[C@@H](OC3C[C@H](OC)C(O[C@H]4C[C@H](OC)[C@@H](O)[C@H](C)O4)[C@H](C)O3)[C@@H](C)/C=C/C=C3\CO[C@@H]4[C@H](O)C(C)=C[C@@H](C(=O)O1)[C@]34O)O2 (stereo partly specified) | 5.63 | 7.86 | 2.6 | – | – | – | 4.76 | 4.49 | 1.41 | 1.72 | 2.06 | 1.24 | 1.42 | 5.81 | – | 0.65 | – | 1.67 | 1.5 | –
O=C(CC(=O)C1=CNc2ccccc2S1)C(=O)Nc1ccc(Cl)cc1 | > 50 | > 50 | > 50 | > 50 | > 50 | > 50 | > 50 | > 50 | > 50 | – | – | – | – | – | – | – | – | – | – | –
Cc1oc2c(C)c3oc(=O)cc(C)c3cc2c1CN1C(=O)C2OCCOCCOCCOCCOCCO[C@H]2C1=O (stereo partly specified) | > 100 | > 100 | – | > 100 | > 100 | > 100 | > 100 | > 100 | > 100 | – | – | – | – | – | – | – | – | – | – | –
NC(=O)c1ccccc1Nc1ccc2nnc(-c3ccncc3)n2n1 | 20.7 | 29.8 | – | 22.5 | 6.42 | 17.4 | 30.5 | 28.9 | – | 6.32 | 15.4 | – | 9.39 | 25.6 | 8.38 | – | 2.45 | 15.1 | 15.3 | 3.12
COc1cccc2c1ccc1nc3cccc(C(=O)N[C@H](C)CN(C)C)c3nc12 | 10.6 | 11.3 | 0.643 | 0.473 | – | 7 | 0.894 | 1.8 | – | 0.0426 | 0.154 | 0.175 | 0.178 | 3.25 | 0.0806 | – | – | 0.0927 | 0.157 | 0.12
O=C(Nc1ccncc1)C(=O)c1cn(Cc2ccc(Cl)cc2)c2ccccc12 | > 100 | > 100 | – | > 100 | > 100 | > 100 | > 100 | 0.0788 | > 75.1 | 0.082 | 0.223 | – | 0.179 | > 100 | 0.0414 | 0.0489 | 0.0355 | 0.106 | 0.0278 | 0.0331
CC(=O)C(=Cc1ccc(C=C(C(C)=O)C(C)=O)cc1)C(C)=O | 3.59 | 5.88 | 5.54 | 4.84 | 4.75 | – | 6.76 | 4.03 | 5.87 | – | – | – | – | 4.4 | – | – | – | – | – | –
COc1ccc(-c2nc(-c3ccccc3)c(-c3ccccc3)[nH]2)cc1OC1CCCC1 | > 100 | > 100 | > 100 | > 100 | > 100 | > 100 | > 100 | > 100 | – | > 100 | > 100 | > 100 | 15.5 | > 100 | > 100 | – | 88 | > 100 | > 100 | 51.8

From PubChem BioAssay (NCI)
